Test results published in paper PMC5423295, “Positive Modulatory Interactions of NMDA Receptor GluN1/2B Ligand Binding Domains Attenuate Antagonists Activity” (Frontiers in Pharmacology, 2017).

Columns and labels:
Assay in all cases: two-electrode voltage clamp, Xenopus oocytes
Type in all cases: cell-based
Conditions in all cases: read-out: EC50 or IC50
[1] = target: T1, GluN1/2B NMDA receptor (GluN1a + GluN2B) (Rattus norvegicus, UniProt P35439+Q00960)
T1 construct: gene Grin1; cRNAs 1:1-3 in Xenopus oocytes; heterotetramer
T1 sequence (Q00960 27-1482, other chains not shown): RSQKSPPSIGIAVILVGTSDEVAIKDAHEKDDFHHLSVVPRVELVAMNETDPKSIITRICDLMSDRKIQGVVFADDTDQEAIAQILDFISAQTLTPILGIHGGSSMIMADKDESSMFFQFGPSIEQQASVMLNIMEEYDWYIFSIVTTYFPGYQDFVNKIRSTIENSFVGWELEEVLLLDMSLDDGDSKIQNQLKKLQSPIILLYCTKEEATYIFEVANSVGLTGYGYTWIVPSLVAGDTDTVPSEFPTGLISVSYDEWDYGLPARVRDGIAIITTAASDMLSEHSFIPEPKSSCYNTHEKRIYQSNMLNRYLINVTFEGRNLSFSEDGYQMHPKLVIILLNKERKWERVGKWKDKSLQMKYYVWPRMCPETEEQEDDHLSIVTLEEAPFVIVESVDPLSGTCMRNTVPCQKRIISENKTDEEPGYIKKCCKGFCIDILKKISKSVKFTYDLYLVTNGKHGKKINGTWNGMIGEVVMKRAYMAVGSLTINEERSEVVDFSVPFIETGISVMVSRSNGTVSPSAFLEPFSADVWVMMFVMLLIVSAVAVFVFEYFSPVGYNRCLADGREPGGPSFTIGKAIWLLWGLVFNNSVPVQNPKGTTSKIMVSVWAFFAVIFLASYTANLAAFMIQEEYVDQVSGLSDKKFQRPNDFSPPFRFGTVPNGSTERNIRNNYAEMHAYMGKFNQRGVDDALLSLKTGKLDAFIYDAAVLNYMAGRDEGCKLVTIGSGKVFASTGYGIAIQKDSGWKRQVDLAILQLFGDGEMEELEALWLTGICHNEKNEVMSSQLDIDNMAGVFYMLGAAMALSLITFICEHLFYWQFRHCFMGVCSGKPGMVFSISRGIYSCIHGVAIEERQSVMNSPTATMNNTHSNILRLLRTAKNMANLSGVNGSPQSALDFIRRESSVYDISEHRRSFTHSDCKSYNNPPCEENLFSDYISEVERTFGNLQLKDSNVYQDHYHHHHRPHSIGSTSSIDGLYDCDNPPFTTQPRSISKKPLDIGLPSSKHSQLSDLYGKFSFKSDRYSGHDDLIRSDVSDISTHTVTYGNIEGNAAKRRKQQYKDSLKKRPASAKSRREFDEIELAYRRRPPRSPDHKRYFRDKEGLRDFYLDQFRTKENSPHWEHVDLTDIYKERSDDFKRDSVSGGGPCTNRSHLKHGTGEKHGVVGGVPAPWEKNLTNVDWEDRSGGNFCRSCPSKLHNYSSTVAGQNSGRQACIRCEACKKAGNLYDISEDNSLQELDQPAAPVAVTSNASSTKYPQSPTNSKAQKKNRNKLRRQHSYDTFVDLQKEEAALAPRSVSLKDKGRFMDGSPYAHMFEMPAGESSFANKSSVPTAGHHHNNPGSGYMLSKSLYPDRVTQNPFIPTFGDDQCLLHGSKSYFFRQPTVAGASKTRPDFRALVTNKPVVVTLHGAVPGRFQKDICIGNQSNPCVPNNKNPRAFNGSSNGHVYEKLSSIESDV

[2] = target: T2, GluN1/2B NMDA receptor (GluN1a + GluN2B) (Rattus norvegicus, UniProt P35439+Q00960, P35439:E781A)
T2 construct: gene Grin1; cRNAs 1:1-3 in Xenopus oocytes; heterotetramer
T2 sequence (Q00960 27-1482, other chains not shown): as above
Excerpt: (§1) two-electrode voltage clamp, Xenopus oocytes on GluN1/2B NMDA receptor (GluN1a + GluN2B)

[3] = target: T3, GluN1/2B NMDA receptor (GluN1a + GluN2B) (Rattus norvegicus, UniProt P35439+Q00960, P35439:Y535A)
T3 construct: gene Grin1; cRNAs 1:1-3 in Xenopus oocytes; heterotetramer
T3 sequence (Q00960 27-1482, other chains not shown): as above
Excerpt: as §1

IC50 [1]	IC50 [2]	IC50 [3]	Compound
35700 ± 1300 nM			NC(CCCP(=O)(O)O)C(=O)O (racemic) [DL-AP5]
4630 ± 330 nM	610 ± 90 nM	160 ± 20 nM	O=C(O)c1cc(O)c2c(Cl)cc(Cl)cc2n1 [5,7-DCKA]
